# Results reported in paper PMC7394242 (Journal of molecular biology, 2020).
# Assays:
# sRI-sT complex = sRI-sT complex (Enterobacteria phage T4, UniProt P06808+P13304); assay: biochemical; assay type: binding
# crystal structure = molecular target: the molecule itself; assay: crystal structure
# sRI-sT complex, sequence (P06808 56-218, one chain of several): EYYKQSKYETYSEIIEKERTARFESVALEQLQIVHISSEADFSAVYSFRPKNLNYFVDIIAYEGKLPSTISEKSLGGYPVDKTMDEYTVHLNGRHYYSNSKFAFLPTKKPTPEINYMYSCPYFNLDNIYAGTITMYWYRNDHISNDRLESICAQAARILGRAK
Molecule,Kd (sRI-sT complex) [µM],stoichiometry N (crystal structure)
Nc1nc2c(ncn2[C@@H]2O[C@H](CO)[C@@H](O)[C@H]2O)c(=O)[nH]1 [guanosine],43,
"periplasmic/soluble domain of the antiholin RI (sRI), residues 25-97, with C-terminal histidine tag (domain or fragment, T4 phage, UniProt P13304 25-97, looked up, disulfide bond between Cys69 and Cys75) NVDPHFDKFMESGIRHVYMLFENKSVESSEQFYSFMRTTYKNDPCSSDFECIERGAEMAQSYARIMNIKLETE",,4
